Results on 1 molecule are retold here after patent publication US8969248B2, “5-iodotriazole derivatives” (Bayer Intellectual Property GmbH, priority 2010, dated 2015).

SMILES strings stand for the structures.

Holding throughout (assay type): in vivo
One assay relates to Leptosphaeria nodorum. As to the kind of experiment: Leptosphaeria nodorum test (wheat)/protective. Conditions: protective spray, 500 ppm, evaluation 8 days after inoculation. On the procedure:
[table] To produce an appropriate active ingredient formulation, 1 part by weight of active ingredient is mixed with the specified amounts of solvent and emulsifier, and the concentrate is diluted with water to the desired concentration. To test for protective activity, young plants are sprayed with the active ingredient formulation at the stated application rate. After the spray coating has dried on, the plants are sprayed with spores with a spore suspension of Leptosphaeria nodorum.

A further assay deals with Pyricularia oryzae. Conditions: rice, protective spray, 250 ppm, evaluation 5 days after inoculation.
The next assay deals with Botrytis cinerea. As to the kind of experiment: Botrytis test (bean)/protective. Conditions: protective spray, 250 ppm, evaluation 2 days after inoculation. On the procedure:
[table] To produce an appropriate active ingredient formulation, 1 part by weight of active ingredient is mixed with the specified amounts of solvent and emulsifier, and the concentrate is diluted with water to the desired concentration. To test for protective activity, young plants are sprayed with the active ingredient formulation at the stated application rate. After the spray coating has dried on, 2 small pieces of agar colonized by Botrytis cinerea are placed onto each leaf.

A further assay deals with Venturia inaequalis. As to the kind of experiment: Venturia test (apple)/protective. Conditions: protective spray, 100 ppm, evaluation 10 days after inoculation. Here is the method:
(§1) [table] To produce an appropriate active ingredient formulation, 1 part by weight of active ingredient is mixed with the specified amounts of solvent and emulsifier, and the concentrate is diluted with water to the desired concentration. To test for protective activity, young plants are sprayed with the active ingredient formulation at the stated application rate. […] The plants are then placed in a greenhouse at approx. 21° C. and a relative air humidity of approx. 90%.

The test system of assay [1] is Puccinia recondita. As to the kind of experiment: Puccinia test (wheat)/protective. Conditions: protective spray, 500 ppm, evaluation 7-9 days after inoculation.
Another assay has as its system Uromyces appendiculatus. Put plainly: Uromyces test (bean)/protective. Conditions: protective spray, 100 ppm, evaluation 10 days after inoculation. Here is the method:
as §1

The test system of another assay is Fusarium culmorum. As to the kind of experiment: Fusarium test (wheat)/seed treatment. Conditions: dose 50 g/dt (rate 100 [sic]), 14 days at 20° C., counting emerged plants. Here is the method:
The test was conducted under greenhouse conditions. Wheat seeds treated with an inventive active compound or a combination of inventive active compounds were sown in 6×6 cm vessels, into a mixture of steamed field soil and sand (1:1). The test compound(s) were dissolved in N-methyl-2-pyrrolidone and diluted to the desired concentration with water. Wheat kernels were inoculated with spores of Fusarium culmorum. The infected and ground kernels were distributed between the treated wheat seeds. The seeds were covered with a top layer of clay granules and incubated in a greenhouse at 20° C. for 14 days. Evaluation was effected by counting the plants which emerged. 0% means an efficacy which corresponds to that of the untreated control, whereas an efficacy of 100% means that all seeds have germinated. In this test, the following inventive compounds show an efficiency of 70% or higher at a dose of 50 g/dt.: […]

For a further assay, the system named is Pyrenophora teres. Put plainly: Pyrenophora teres test (barley)/protective. Conditions: protective spray, 500 ppm, evaluation 8 days after inoculation. Here is the method:
[table] To produce an appropriate active ingredient formulation, 1 part by weight of active ingredient is mixed with the specified amounts of solvent and emulsifier, and the concentrate is diluted with water to the desired concentration. To test for protective activity, young plants are sprayed with the active ingredient formulation at the stated application rate. After the spray coating has dried on, the plants are sprayed with a spore suspension of Pyrenophora teres.

Another assay has as its system Sphaerotheca fuliginea. As to the kind of experiment: Sphaerotheca test (cucumber)/protective. Conditions: protective spray, 500 ppm, evaluation 7 days after inoculation. Here is the method: [table] To produce an appropriate active ingredient formulation, 1 part by weight of active ingredient is mixed with the specified amounts of solvent and emulsifier, and the concentrate is diluted with water to the desired concentration. To test for protective activity, young cucumber plants are sprayed with the active ingredient formulation at the stated application rate. 1 day after the treatment, the plants are inoculated with a spore suspension of Sphaerotheca fuliginea. The plants are then placed in a greenhouse at 70% relative air humidity and a temperature of 23° C.

Another assay deals with Septoria tritici. Put plainly: Septoria tritici test (wheat)/protective. Conditions: protective spray, 500 ppm, evaluation 21 days after inoculation.
The test system of the next assay is Fusarium graminearum. Conditions: barley, protective spray, 500 ppm, evaluation 5 days after inoculation.
The subject of another assay is Cochliobolus miyabeanus. Put plainly: Cochliobolus test (rice)/protective. Conditions: protective spray, 250 ppm, evaluation 4 days after inoculation.
In assay [2] the test system is Puccinia recondita. As to the kind of experiment: Puccinia test (wheat)/seed treatment. Conditions: dose 50 g/dt (rate 100 [sic]), inoculated 14 days after sowing, evaluated 9 days later, infected leaf area. Here is the method: The test was conducted under greenhouse conditions. Wheat seeds treated with an inventive active compound or a combination of inventive active compounds were sown in 6×6 cm vessels, into a mixture of steamed field soil and sand (1:1). The test compound(s) were dissolved in N-methyl-2-pyrrolidone and diluted to the desired concentration with water. The wheat grains treated were sown and placed in a greenhouse at 10° C. 14 days after sowing, the plants were inoculated with a spore suspension of Puccinia recondita. The plants were incubated at 20° C. for a further 9 days. […] In this test, the following inventive compounds show an efficiency of 70% or higher at a dose of 50 g/dt: […]

For the next assay, the system named is Leptosphaeria maculans. Put plainly: Leptosphaeria test (oilseed rape)/seed treatment. Conditions: dose 50 g/dt (rate 100 [sic]), 14 days at 10° C. and 7 days at 18° C., counting emerged plants. Here is the method:
The test was conducted under greenhouse conditions. […] treated with an inventive active compound or a combination of inventive active compounds were sown in 6×6 cm vessels, into a mixture of steamed field soil and sand (1:1). The test compound(s) were dissolved in N-methyl-2-pyrrolidone and diluted to the desired concentration with water. Perlite was inoculated with spores of Leptosphaeria maculans. The infected perlite was distributed between the treated […]. The seeds were covered with a top layer of steamed field soil and sand (1:1) and incubated in a greenhouse at 10° C. for 14 days and at 18° C. for 7 days. […] In this test, the following inventive compounds show an efficiency of 70% or higher at a dose of 50 g/dt.: […]

A further assay concerns Phakopsora pachyrhizi. Put plainly: Phakopsora test (soya beans)/protective. Conditions: protective spray, 100 ppm, evaluation 1 days after inoculation (so in the source).
Another assay deals with Rhizoctonia solani. As to the kind of experiment: Rhizoctonia test (cotton)/seed treatment. Conditions: dose 50 g/dt (rate 100 [sic]), 7 days at 20° C., counting emerged and diseased plants. On the procedure: The test was conducted under greenhouse conditions. Cottonseeds treated with an inventive active compound or a combination of inventive active compounds were sown in 6×6 cm vessels, into a mixture of steamed field soil and sand (1:1). The test compound(s) were dissolved in N-methyl-2-pyrrolidone and diluted to the desired concentration with water. Perlite was inoculated with spores of Rhizoctonia solani. The infected perlite was distributed between the treated cottonseeds. The seeds were covered with a top layer of clay granules and incubated in a greenhouse at 20° C. for 7 days. […] In this test, the following inventive compounds show an efficiency of 70% or higher at a dose of 50 g/dt: […]

The next assay deals with Microdochium nivale. Put plainly: Microdochium test (wheat)/seed treatment. Conditions: dose 50 g/dt (rate 100 [sic]), 21 days at 10° C., counting emerged plants. Here is the method: The test was conducted under greenhouse conditions. Wheat seeds treated with an inventive active compound or a combination of inventive active compounds were sown in 6×6 cm vessels, into a mixture of steamed field soil and sand (1:1). The test compound(s) were dissolved in N-methyl-2-pyrrolidone and diluted to the desired concentration with water. Wheat kernels were inoculated with spores of Microdochium nivale. The infected and ground kernels were distributed between the treated wheat seeds. The seeds were covered with a top layer of steamed field soil and sand (1:1) and incubated in a greenhouse at 10° C. for 21 days. […] In this test, the following inventive compounds show an efficiency of 70% or higher at a dose of 50 g/dt.

In assay [3] the test system is Blumeria graminis f. sp. hordei. Put plainly: Blumeria graminis test (barley)/protective. Conditions: protective spray, 500 ppm, evaluation 7 days after inoculation. On the procedure:
[table] To produce an appropriate active ingredient formulation, 1 part by weight of active ingredient is mixed with the specified amounts of solvent and emulsifier, and the concentrate is diluted with water to the desired concentration. To test for protective activity, young plants are sprayed with the active ingredient formulation at the stated application rate. After the spray coating has dried on, the plants are dusted with spores of Blumeria graminis f. sp. hordei.

As for `OC(Cc1ccccc1Cl)(Cn1ncnc1I)C1(Cl)CC1` (stereo not drawn) [Compound 3], the “Efficacy (%)” value came to 100% in the assay on Leptosphaeria nodorum; 94% with Pyricularia oryzae; 100% in the assay on Botrytis cinerea; 100% in the assay with Venturia inaequalis; 100% with Puccinia recondita [1]; 100% with Uromyces appendiculatus. The “Efficacy (%)” value in the assay on Fusarium culmorum is given as 100%; in the assay with Pyrenophora teres, 100%; in the assay on Sphaerotheca fuliginea, 100%; with Septoria tritici, 88%; with Fusarium graminearum, 100%; in the assay with Puccinia recondita [2] it was 100%. Besides, the “Efficacy (%)” value in the assay with Leptosphaeria maculans amounted to 100%; in the assay with Phakopsora pachyrhizi, 98%; in the assay on Rhizoctonia solani it was 100%; in the assay on Microdochium nivale it was 100%; in [3], 100%. The same molecule yielded an efficacy with Cochliobolus miyabeanus not below 98%.
